Values quoted from earlier work, collected in patent US10111869B2, “Reduction of opioid blood fluctuations” (priority 2009, dated 2018).

Details: in vivo

COc1ccc2c3c1O[C@H]1C(=O)CC[C@@]4(O)[C@@H](C2)N(C)CC[C@]314 [Oxycodone]
analgesic potency relative to morphine: about twice
